Laboratory results published in patent publication US9974778B2, “Substituted pyridinones as MGAT2 inhibitors” (BRISTOL-MYERS SQUIBB COMPANY, priority 2014, dated 2018).

biological target: T1, Human MGAT-2 (Homo sapiens, UniProt Q3SYC2); experiment: MGAT LCMS Assay; assay type: biochemical; conditions: human MGAT2 membranes expressed in Sf9 cells; 100 μM 2-oleoylglycerol, 15 μM oleoyl-coenzyme A; read-out: h-MGAT LCMS IC50
T1 construct: made in house; host or cells: Sf9 cells (membrane preparation)
T1 sequence (Q3SYC2 whole entry): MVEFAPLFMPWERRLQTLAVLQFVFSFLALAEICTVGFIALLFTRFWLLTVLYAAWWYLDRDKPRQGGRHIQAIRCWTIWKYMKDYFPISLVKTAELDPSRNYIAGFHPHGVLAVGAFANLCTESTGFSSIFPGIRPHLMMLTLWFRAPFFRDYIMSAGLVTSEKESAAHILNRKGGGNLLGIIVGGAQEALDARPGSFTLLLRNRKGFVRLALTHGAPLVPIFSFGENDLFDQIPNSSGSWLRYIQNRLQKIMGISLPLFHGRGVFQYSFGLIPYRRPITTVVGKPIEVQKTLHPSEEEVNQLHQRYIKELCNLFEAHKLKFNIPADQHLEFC
Protocol: Assay plates were run through a fully automated robotics system and shaken for 5 seconds every minute for a total 10 minutes. The reactions were then quenched with 120 μL of ice cold methanol containing 1 μg/mL 1,2-distearoyl-rac-glycerol as the internal standard. Plates were shaken for 2 minutes and spun down to remove protein precipitation. After the spin, samples were transferred to LC/MS compatible PCR plates. For LC/MS analysis, a ThermoFisher Surveyor pump, utilizing a Waters […]® C8, 50×2.1 mm column, was used for the chromatography of enzyme products. The buffer system consists of 0.1% formic acid in water with a mobile phase consisting 0.1% formic acid in methanol. […] The first 0.5 minutes of each injection was diverted to waste to eliminate the presence of Phosphate buffer in the enzymatic reaction. The column was run at 0.6 mL/min and a temperature of 65° C. Mass spectrometry analysis of the samples was performed on a ThermoFisher Quantum Triple quad utilizing APCI (+) as the mode of ionization. […] The ratio of Diolein to internal standard (Peak Area Ratio) is utilized to calculate IC50 values.

Going from `CCc1ccc(-c2cc(-c3ccc(OCCCC(F)(F)F)cc3F)[nH]c(=O)c2C(=O)Nc2ccc(OC(F)(F)F)cc2)s1` [Example 116, 4-(5-Ethylthiophen-2-yl)-6-(2-fluoro-4-(4,4,4-trifluorobutoxy)phenyl)-2-oxo-N-(4-(trifluoromethoxy)phenyl)-1,2-dihydropyridine-3-carboxamide] to `CCOc1ccc(NC(=O)c2c(-c3ccn(CC)n3)cc(-c3ccc(OCCCC(F)(F)F)cc3F)[nH]c2=O)cc1` [Example 119, N-(4-Ethoxyphenyl)-4-(1-ethyl-1H-pyrazol-3-yl)-6-(2-fluoro-4-(4,4,4-trifluorobutoxy)phenyl)-2-oxo-1,2-dihydropyridine-3-carboxamide], the IC50 falls from 17 nM to 10 nM (1.7-fold).

`Cc1ccc(-c2cc(-c3ccc(OCCCC(F)(F)F)cc3)[nH]c(=O)c2-n2nn[nH]c2=O)cc1` [Example 153, 3-(5-Oxo-4,5-dihydro-1H-tetrazol-1-yl)-4-(p-tolyl)-6-(4-(4,4,4-trifluorobutoxy)phenyl)pyridin-2(1H)-one] and `Cc1ccc(-c2cc(-c3ccc(OCCCCCC(F)(F)F)cc3F)[nH]c(=O)c2-n2nn[nH]c2=O)cc1` [Example 159, 6-{2-Fluoro-4-[(6,6,6-trifluorohexyl)oxy]phenyl}-4-(4-methylphenyl)-3-(5-oxo-4,5-dihydro-1H-1,2,3,4-tetrazol-1-yl)-1,2-dihydropyridin-2-one] are within 1.5-fold of each other in IC50: 49 nM for the first, 38 nM for the second.

First: CCCCCc1ccc(-c2cc(-c3ccc(C)cc3)c(C(=O)Nc3ccccc3)c(=O)[nH]2)cc1 [Example 33, 2-Oxo-6-(4-pentylphenyl)-N-phenyl-4-(p-tolyl)-1,2-dihydropyridine-3-carboxamide]
Second: CCCCCc1ccc(-c2cc(-c3ccc(C)cc3)c(C(=O)Nc3cccnc3)c(=O)[nH]2)cc1 [Example 23, 2-Oxo-6-(4-pentylphenyl)-N-(pyridin-3-yl)-4-(p-tolyl)-1,2-dihydropyridine-3-carboxamide]
The IC50 of the first is 9.1-fold higher: 218 nM for the first, 24 nM for the second.

First: Cc1ccc(-c2cc(-c3ccc(Cc4ccccc4)cc3)[nH]c(=O)c2-c2nn[nH]n2)cc1 [Example 81, 6-(4-Benzylphenyl)-3-(2H-tetrazol-5-yl)-4-(p-tolyl)pyridin-2(1H)-one]
Second: CCc1cnc(-c2cc(-c3ccc(CCC4CC4)cc3)[nH]c(=O)c2-c2nn[nH]n2)s1 [Example 149, 6-(4-(2-Cyclopropylethyl)phenyl)-4-(5-ethylthiazol-2-yl)-3-(2H-tetrazol-5-yl)pyridin-2(1H)-one]
The IC50 of the first is 4.9-fold higher: 256 nM for the first, 52 nM for the second.

Compared with `CS(=O)(=O)NC(=O)c1c(-c2ccn(CC3CC3)n2)cc(-c2ccc(OCCCCCC(F)(F)F)cc2)[nH]c1=O` [Example 105, 4-(1-(Cyclopropylmethyl)-1H-pyrazol-3-yl)-N-(methylsulfonyl)-2-oxo-6-(4-((6,6,6-trifluorohexyl)oxy)phenyl)-1,2-dihydropyridine-3-carboxamide], `O=c1[nH]c(-c2ccc(OCCCCCC(F)(F)F)cc2)cc(-c2ccn(CC3CC3)n2)c1-c1nnn[nH]1` [Example 110, 4-(1-(Cyclopropylmethyl)-1H-pyrazol-3-yl)-3-(1H-tetrazol-5-yl)-6-(4-((6,6,6-trifluorohexyl)oxy)phenyl)pyridin-2(1H)-one] is 1.9-fold higher in IC50: 23 nM for the first, 43 nM for the second.

First: CCc1cnc(-c2cc(-c3ccc(OCCCC(F)(F)F)cc3F)[nH]c(=O)c2-c2nnn[nH]2)s1 [Example 133, 4-(5-Ethylthiazol-2-yl)-6-(2-fluoro-4-(4,4,4-trifluorobutoxy)phenyl)-3-(1H-tetrazol-5-yl)pyridin-2(1H)-one]
Second: CCc1cnc(-c2cc(-c3ccc(OCCCCCC(F)(F)F)cc3F)[nH]c(=O)c2-c2nnn[nH]2)s1 [Example 148, 4-(5-Ethylthiazol-2-yl)-6-(2-fluoro-4-((6,6,6-trifluorohexyl)oxy)phenyl)-3-(1H-tetrazol-5-yl)pyridin-2(1H)-one]
The IC50 of the first is 2.5-fold higher: 2 nM for the first, 0.8 nM for the second. The second is the more potent here.

`CCOc1cc(OCCCC(F)(F)F)ccc1-c1cc(-c2ncc(C3CC3)s2)c(-c2nnn[nH]2)c(=O)[nH]1` [Example 137, 4-(5-Cyclopropylthiazol-2-yl)-6-(2-ethoxy-4-(4,4,4-trifluorobutoxy)phenyl)-3-(1H-tetrazol-5-yl)pyridin-2(1H)-one] and `CCc1ccc(-c2cc(-c3ccc(OCCCC(F)(F)F)cc3Cl)[nH]c(=O)c2-c2nnn[nH]2)s1` [Example 139, 6-(2-Chloro-4-(4,4,4-trifluorobutoxy)phenyl)-4-(5-ethylthiophen-2-yl)-3-(1H-tetrazol-5-yl)pyridin-2(1H)-one] are within 1.5-fold of each other in IC50: 5 nM for the first, 4 nM for the second.

First: CCc1ccc(-c2cc(-c3ccc(OCCCCCC(F)(F)F)cc3)[nH]c(=O)c2C(=O)NS(C)(=O)=O)s1 [Example 101, 4-(5-Ethylthiophen-2-yl)-N-(methylsulfonyl)-2-oxo-6-(4-((6,6,6-trifluorohexyl)oxy)phenyl)-1,2-dihydropyridine-3-carboxamide]
Second: CCc1ccc(-c2cc(-c3ccc(OCCCCCC(F)(F)F)cc3)[nH]c(=O)c2-n2nn[nH]c2=O)s1 [Example 156, 4-(5-Ethylthiophen-2-yl)-3-(5-oxo-4,5-dihydro-1H-1,2,3,4-tetrazol-1-yl)-6-{4-[(6,6,6-trifluorohexyl)oxy]phenyl}-1,2-dihydropyridin-2-one]
The IC50 of the first is 20-fold lower: 7 nM for the first, 143 nM for the second. The first is the more potent here.

`CCc1cnc(-c2cc(-c3ccc(OCCCC(F)(F)F)cc3F)[nH]c(=O)c2C(=O)NS(C)(=O)=O)s1` [Example 146, 4-(5-Ethylthiazol-2-yl)-6-(2-fluoro-4-(4,4,4-trifluorobutoxy)phenyl)-N-(methylsulfonyl)-2-oxo-1,2-dihydropyridine-3-carboxamide] and `CCc1ccc(-c2cc(-c3ccc(OCCCC(F)(F)F)cc3F)[nH]c(=O)c2-n2nn[nH]c2=O)s1` [Example 152, 4-(5-Ethylthiophen-2-yl)-6-(2-fluoro-4-(4,4,4-trifluorobutoxy)phenyl)-3-(5-oxo-4,5-dihydro-1H-tetrazol-1-yl)pyridin-2(1H)-one] are within 1.5-fold of each other in IC50: 29 nM for the first, 23 nM for the second.

First: CCc1ccc(-c2cc(-c3ccc(OCCCCCC(F)(F)F)cc3F)[nH]c(=O)c2-n2nn[nH]c2=O)s1 [Example 157, 4-(5-Ethylthiophen-2-yl)-6-{2-fluoro-4-[(6,6,6-trifluorohexyl)oxy]phenyl}-3-(5-oxo-4,5-dihydro-1H-1,2,3,4-tetrazol-1-yl)-1,2-dihydropyridin-2-one]
Second: CCc1ccc(-c2cc(-c3ccc(OCCCC(F)(F)F)cc3Cl)[nH]c(=O)c2-n2nn[nH]c2=O)s1 [Example 22, 6-(2-Chloro-4-(4,4,4-trifluorobutoxy)phenyl)-4-(5-ethylthiophen-2-yl)-3-(5-oxo-4,5-dihydro-1H-tetrazol-1-yl)pyridin-2(1H)-one]
The IC50 of the first is 5.5-fold lower: 46 nM for the first, 252 nM for the second.

Going from `Cc1ccc(-c2cc(-c3ncc(CCCCCCC(F)(F)F)s3)[nH]c(=O)c2-c2nnn[nH]2)cc1` [Example 62, 3-(1H-Tetrazol-5-yl)-4-(p-tolyl)-6-(5-(7,7,7-trifluoroheptyl)thiazol-2-yl)pyridin-2(1H)-one] to `CC(C)n1ccc(-c2cc(-c3ccc(OCCCCCC(F)(F)F)cc3)[nH]c(=O)c2-c2nnn[nH]2)c1` [Example 57, 4-(1-Isopropyl-1H-pyrrol-3-yl)-3-(1H-tetrazol-5-yl)-6-(4-((6,6,6-trifluorohexyl)oxy)phenyl)pyridin-2(1H)-one], the IC50 falls from 188 nM to 30 nM (6.3-fold).

Compared with `Cc1ccc(-c2c(C)c(-c3ccc(OCCCC(F)(F)F)cc3)[nH]c(=O)c2-c2nnn[nH]2)cc1` [Example 7, 5-Methyl-3-(1H-tetrazol-5-yl)-4-(p-tolyl)-6-(4-(4,4,4-trifluorobutoxy)phenyl)pyridin-2(1H)-one], `O=c1[nH]c(-c2ccc(OCCCC(F)(F)F)cc2)cc(-c2cc3ccccc3s2)c1-c1nnn[nH]1` [Example 47, 4-(Benzo[b]thiophen-2-yl)-3-(1H-tetrazol-5-yl)-6-(4-(4,4,4-trifluorobutoxy)phenyl)pyridin-2(1H)-one] is 3.2-fold higher in IC50: 9 nM for the first, 29 nM for the second. The first is the more potent here.

Going from `O=c1[nH]c(-c2ccc(OCCCCCC(F)(F)F)cc2F)cc(-c2ccc(C3CC3)s2)c1-c1nn[nH]n1` [Example 96, 4-(5-Cyclopropylthiophen-2-yl)-6-(2-fluoro-4-((6,6,6-trifluorohexyl)oxy)phenyl)-3-(2H-tetrazol-5-yl)pyridin-2(1H)-one] to `CCOc1ccc(NC(=O)c2c(-c3ccc(C)cc3)c(C)c(-c3ccc(OCCCC(F)(F)F)cc3)[nH]c2=O)cc1` [Example 24, N-(4-Ethoxyphenyl)-5-methyl-2-oxo-4-(p-tolyl)-6-(4-(4,4,4-trifluorobutoxy)phenyl)-1,2-dihydropyridine-3-carboxamide], the IC50 rises from 1 nM to 39 nM (39-fold).

Going from `CCOc1ccc(NC(=O)c2c(-c3ccc(C)cc3)cc(C3(F)CCCCC3)[nH]c2=O)cc1` [Example 41, N-(4-Ethoxyphenyl)-6-(1-fluorocyclohexyl)-2-oxo-4-(p-tolyl)-1,2-dihydropyridine-3-carboxamide] to `CCOc1ccc(NC(=O)c2c(-c3cnc(N(C)C)s3)cc(C3(F)CCCCC3)[nH]c2=O)cc1` [Example 10, 4-(2-(Dimethylamino)thiazol-5-yl)-N-(4-ethoxyphenyl)-6-(1-fluorocyclohexyl)-2-oxo-1,2-dihydropyridine-3-carboxamide], the IC50 falls from 36 nM to 17 nM (2.1-fold). The second is the more potent here.

With `CCOc1ccc(NC(=O)c2c(-c3cnc(N(C)C)s3)cc(C3CCCCC3)[nH]c2=O)cc1` [Example 8, 6-Cyclohexyl-4-(2-(dimethylamino)thiazol-5-yl)-N-(4-ethoxyphenyl)-2-oxo-1,2-dihydropyridine-3-carboxamide] the IC50 was 50 nM.
